Reference: PubChem BioAssay (NCI)
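Each compound was tested at five concentrations against cells in 96-well plates for 48 hours. TGI marks complete inhibition of growth.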

How the values were obtained:
Assay in all cases: growth of human tumour cells (NCI), 48 h
XF 498 CNS = system: XF 498 CNS
DLD-1 colon = system: DLD-1 colon
DMS 114 small cell lung = system: DMS 114 small cell lung
KM20L2 colon = system: KM20L2 colon
SNB-78 CNS = system: SNB-78 CNS
M19-MEL melanoma = system: M19-MEL melanoma
DMS 273 small cell lung = system: DMS 273 small cell lung
HOP-18 NSCLC = system: HOP-18 NSCLC

SMILES: O=C(NCc1ccccc1)c1cc2cc(O)c(O)cc2cn1
- TGI (XF 498 CNS): 90.3 µM
- TGI (DLD-1 colon): > 100 µM
- TGI (DMS 114 small cell lung): 24 µM
- TGI (KM20L2 colon): 84.6 µM
- TGI (SNB-78 CNS): > 100 µM
- TGI (M19-MEL melanoma): 77.3 µM
- TGI (DMS 273 small cell lung): 23.2 µM
- TGI (HOP-18 NSCLC): 41.4 µM

SMILES: CCCN1CN(C(C(=O)N[C@@H]2C(=O)N3C2SC(C)(C)C3C(=O)O)c2ccccc2)CSC1=S (stereo partly specified)
- TGI (XF 498 CNS): > 100 µM
- TGI (DLD-1 colon): > 100 µM
- TGI (DMS 114 small cell lung): 94.1 µM
- TGI (KM20L2 colon): > 100 µM
- TGI (SNB-78 CNS): > 100 µM
- TGI (M19-MEL melanoma): > 100 µM
- TGI (DMS 273 small cell lung): > 100 µM
- TGI (HOP-18 NSCLC): > 100 µM

SMILES: CC(=O)Nc1ccc(C(=O)NN2C(=O)C(Cl)C2c2cc(Br)ccc2O)cc1 (stereo unspecified)
- TGI (DLD-1 colon): > 100 µM
- TGI (M19-MEL melanoma): 33.7 µM
- TGI (HOP-18 NSCLC): 62 µM

SMILES: CCOC(=O)C(Cc1ccccc1)NC(=O)c1ccc(N=NN(C)C)cc1 (stereo unspecified)
- TGI (DLD-1 colon): > 100 µM
- TGI (DMS 114 small cell lung): > 100 µM
- TGI (M19-MEL melanoma): > 100 µM
- TGI (DMS 273 small cell lung): > 100 µM

SMILES: COc1ccc(CNC2=C(NC(C)=O)C(=O)c3ccccc3C2=O)cc1
- TGI (DLD-1 colon): 22.8 µM
- TGI (KM20L2 colon): > 50 µM
- TGI (SNB-78 CNS): 40.6 µM
- TGI (M19-MEL melanoma): 17.4 µM
- TGI (DMS 273 small cell lung): > 50 µM

SMILES: O=C(O)C(Cc1c[nH]c2ccccc12)N=Cc1nc(-c2ccccc2)oc1O (stereo unspecified)
- TGI (XF 498 CNS): > 100 µM
- TGI (DLD-1 colon): > 100 µM
- TGI (DMS 114 small cell lung): > 100 µM
- TGI (KM20L2 colon): > 100 µM
- TGI (SNB-78 CNS): > 100 µM
- TGI (M19-MEL melanoma): > 100 µM
- TGI (DMS 273 small cell lung): > 100 µM

SMILES: C=CCNC(=S)N1c2ccccc2NC(=O)CC1C (stereo unspecified)
- TGI (XF 498 CNS): > 100 µM
- TGI (DMS 114 small cell lung): > 100 µM
- TGI (KM20L2 colon): > 100 µM
- TGI (SNB-78 CNS): > 100 µM
- TGI (M19-MEL melanoma): > 100 µM
- TGI (DMS 273 small cell lung): > 100 µM
